Measurements from the OligoGym collection.
Bases are written 5' to 3'; sugars and linkages follow in the same order, as letters with counts (s phosphorothioate, o phosphodiester; PS: all linkages phosphorothioate). C may stand for cytosine or 5-methylcytosine; the collection does not tell. l = locked nucleic acid (LNA); d = 2'-deoxy (DNA)

Biological target: HIF1A
Assay: HeLa, 100 nM transfected, 24 h, mean of 3
Details: ASO

Q: “TTACTGCCTTCTT (sugars ldldddddddldl, PS)” was tested. Which caspase activation (% of PBS control) did it give?
A: Its caspase activation (% of PBS control) is 154.

Q: Which caspase activation (% of PBS control) does the source give for “TTACTGCCTTCTT (sugars ldllddddddldl, PS)” here?
A: Its caspase activation (% of PBS control) is 181.

Q: “TTACTGCCTTCTT (sugars lldlddddddldl, PS)” was tested. Which caspase activation (% of PBS control) did it give?
A: The caspase activation (% of PBS control) was 222.
